Assay results taken from publication PMC8987157, “Regioselective One-Pot Synthesis of Hydroxy-(S)-Equols Using Isoflavonoid Reductases and Monooxygenases and Evaluation of the Hydroxyequol Derivatives as Selective Estrogen Receptor Modulators and Antioxidants” (Frontiers in Bioengineering and Biotechnology, 2022).
Several values for one entry are separate records, joined by “and”; a condition that tells them apart may be missing. Equal entries are not always repeated.

Tests used:
ERα LBD = target: T1, ERα LBD (Homo sapiens, UniProt P03372); test: ERα-SRC1 agonistic yeast two hybrid (Y2H) assay, β-galactosidase activity; type: cell-based; settings: for EC50: Y2H ERα-SRC1, yeast L40, triplicates
T1 construct: expressed in transfected cells; host or cells: Saccharomyces cerevisiae L40
T1 sequence (P03372 312-595): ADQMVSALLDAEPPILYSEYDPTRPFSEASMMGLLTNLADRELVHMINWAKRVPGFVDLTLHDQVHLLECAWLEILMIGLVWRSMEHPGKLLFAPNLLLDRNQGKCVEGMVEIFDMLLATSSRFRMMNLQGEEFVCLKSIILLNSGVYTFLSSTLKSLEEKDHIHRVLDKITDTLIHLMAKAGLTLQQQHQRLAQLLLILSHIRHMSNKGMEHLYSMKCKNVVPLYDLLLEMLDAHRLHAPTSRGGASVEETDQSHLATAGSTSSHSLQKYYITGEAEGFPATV
T1 sequence (Q15788 613-773 partner limits assumed): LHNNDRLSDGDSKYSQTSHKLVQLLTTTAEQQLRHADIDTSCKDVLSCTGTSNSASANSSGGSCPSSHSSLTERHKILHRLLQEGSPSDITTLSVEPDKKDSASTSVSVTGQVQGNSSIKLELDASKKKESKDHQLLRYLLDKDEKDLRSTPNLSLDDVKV
From the text: (§1) Microbial strains. Cloning information and used primers for the construction of EcHpaBC and MaFMO encoded vectors are listed in Supplementary Table S1. […] Three EcHpaB mutants were made by site-directed mutagenesis using the listed overlapping primer-containing intended mutations. […] These sets of two vectors (pBTM116:LexA DBD-ERα LBD & pVP16:VP16 AD-(Gly4Ser)2-tSRC1 or pBTM116:LexA DBD-ERβ LBD & pVP16:VP16 AD-(Gly4Ser)2-tSRC1) were transformed in the L40 strains.
(§2) Yeast-two-hybrid assay. The transformed L40 strains were grown in synthetic leucine and tryptophan drop-out (SD L^−W^-) media. […] These plates were incubated at 30 °C with shaking of 1,000 rpm for overnight (∼20 h). After the incubation, the cultures were centrifuged, and the supernatants were discarded. In each well, 500 μL Z-buffer (60 mM Na2HPO4, 40 mM NaH2PO4, 10 mM KCl, and 1 mM MgSO4; pH 7.0) with 1 mM dithiothreitol (DTT) was filled and resuspended. 50 μL of each suspension was taken for OD600 measurement before chloroform treatment. (This value was not used for the measurement of the Miller unit.) Chloroform 50 μL was added to each 450 μL of the suspension, and the solution mixture was shaked for 1 min at 1,000 rpm to disrupt the cell membrane. The disrupted suspensions were kept still at room temperature for 2 min, and 50 μL aqueous aliquots were taken. In polystyrene flat-bottomed 96-well plate, each well was charged with 100 μL of Z-buffer with 1 mM DTT, 50 μL aqueous aliquot, and 50 μL of Z-buffer with 1 mM DTT and 0.4 mg/ml ortho-nitrophenyl-β-galactoside (ONPG). Initially, OD600 of all the wells was measured, and subsequently, OD420 of the same wells was measured for 30 min with a minute interval. […] E/E0=ε/1+10^n(log(EC50)−log([L])),
(§3) where E/E 0 is the normalized Miller unit and ε is the maximum response relative to E2 (ε(E2) = 1). [L] is the concentration of ligands and n is the Hill’s coefficient.

[1] = DPPH radical scavenging assay
Description: DPPH radical scavenging assay. In each well of polystyrene flat-bottom 96-well plates, 200 μL of solution containing 0.1 mM 2,2-diphenyl-1-(2,4,6-trinitrophenyl)hydrazin-1-yl (DPPH) radical, 50% (v/v) MeOH, 10% (v/v) DMSO, specific amount of compounds, and 1x concentration of phosphate buffered saline (PBS) was made. The PBS was prepared with 4x concentration of its original recipe with pH 7.4 and diluted by adding 50 μL in the solution mixture. The plates were incubated at 37°C for 30 min. The OD520 and OD495 of incubated plates were measured. The radical scavenging activity was defined as (OD520/OD495)DMSO- OD520/OD495. (OD520/OD495)DMSO is the OD520/OD495 of the DMSO control without antioxidative compounds. The radical scavenging activity values were normalized with the value of the positive control (1 mM of L-ascorbic acid). The data were triplicated, and the average values were regressed using the following formula.
where E/E 0 is the normalized radical scavenging activity, [L] is the concentration of compounds, and n is the Hill’s coefficient, and EC50 is the value of effective concentration at E/E 0 = 0.5.

ERβ LBD = target: T2, ERβ LBD (Homo sapiens, UniProt Q92731); test: ERβ-SRC1 agonistic yeast two hybrid (Y2H) assay, β-galactosidase activity; type: cell-based; settings: for β/α ratio of EC50^-1: ERβ over ERα, Y2H; for EC50: Y2H ERβ-SRC1, yeast L40, triplicates
T2 construct: LexA DBD-ERβ LBD (264–510); expressed in transfected cells; host or cells: Saccharomyces cerevisiae L40
From the text: as §1, §2, §3

ERα = test system: ERα; set-up: method as in Lee et al., 2017; settings: ref Lee et al., 2017; cited from earlier work

T2 sequence (Q92731 264-510, one chain of several): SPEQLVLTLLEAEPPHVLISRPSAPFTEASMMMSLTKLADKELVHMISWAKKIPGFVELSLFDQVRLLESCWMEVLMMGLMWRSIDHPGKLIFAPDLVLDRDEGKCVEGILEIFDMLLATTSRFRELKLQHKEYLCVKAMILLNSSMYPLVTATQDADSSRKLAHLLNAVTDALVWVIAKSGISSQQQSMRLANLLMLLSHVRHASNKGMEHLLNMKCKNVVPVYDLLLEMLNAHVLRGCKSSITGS

SMILES	fold higher EC50 than (S)-equol (ERα LBD; ERα)	EC50 (ERα LBD)	antioxidative activity higher than 3′HD [1]	fold higher EC50 than (S)-equol (ERβ LBD; ERβ)	β/α ratio of EC50^-1 (ERβ LBD)	EC50 (ERβ LBD)	response in Y2H agonist assay (ERα LBD; ERα, concentrations in the range of 10^–8∼10^–3 M)	binding affinity ERα versus ERβ (ERα)	response in Y2H agonist assay (ERβ LBD; ERβ, concentrations in the range of 10^–8∼10^–3 M)	lower β/α ratio response than that of 17β-estradiol (ERβ LBD)	weaker estrogenic activity than E2 (ERα LBD; ERα)	weaker estrogenic activity than E2 (ERβ LBD; ERβ)
Oc1ccc2c(c1)OC[C@H](c1ccc(O)c(O)c1)C2 [3'-hydroxy-(S)-equol, 3′-hydroxy-(S)-equol]	30∼200 fold	10 to 100 µM and 20.6 µM	more than 40%	30∼200 fold	1.15	10 to 100 µM and 17.9 µM						
Oc1ccc([C@H]2COc3cc(O)cc(O)c3C2)cc1 [5-hydroxy-(S)-equol]							did not show any response	higher binding affinity to ERα than ERβ	did not show any response			
Oc1ccc([C@H]2COc3cc(O)c(O)cc3C2)cc1 [6-hydroxy-(S)-equol]	30∼200 fold	10 to 100 µM and 102 µM		30∼200 fold	1.00	10 to 100 µM and 102 µM				10%		
Oc1ccc([C@H]2COc3cc(O)ccc3C2)cc1 [(S)-equol]		0.665 µM			1.31	0.506 µM					about 3 orders of magnitude	about 3 orders of magnitude
